Measurements as given in patent US9370521B2, “Targeting GLI proteins in human cancer by small molecules” (The Regents of the University of California, priority 2011, dated 2016).

Columns and labels:
[1] = test system: melanoma MelJuso; test: In vivo efficacy, Mouse Xenograft Model (melanoma MelJuso); conditions: 50 mg/kg i.p. daily for 14 days, FIG. 1; for Tumor growth after treatment: vs vehicle
Method: (§1) The administered compounds were tested in vivo in the mouse xenograft model bearing human cancer cells. Briefly, female athymic nude mice strain NCRNU-M (5-10 weeks old, 20-25 grams in weight; Taconic, Germantown, N.Y.) was maintained in pathogen-free conditions. Three human cancer cell lines: NSCLC A549, melanoma MelJuso, and mesothelioma MS-1 were used. Five or ten mice were used in each group and injected s.c. with 3×10^6 cancer cells in the dorsal area in a volume of 100 μl. After inoculation, human cancer cells were allowed to grow in mice for 10-13 days to become visible tumor nodules. Animals were then injected with a compound of the embodiments at a dose of 50 mg/kg body weight (1 mg/mouse per day). Vehicle alone was used as control. The compounds and controls were adjusted in 40 ul volume for i.p. injection in the abdomens of the mice. Injections were performed daily around the same time for 14 days. Tumors were allowed to grow for 1-2 additional weeks after completion of the compound treatments. Tumor size was measured every three to four days, and tumor volumes were calculated using width (x) and length (y) (x^2y/2, where x<y). Throughout this period, general toxicity of the treatments was also monitored by measuring body weight of the mice. Data was presented as mean values (±S.D.).
In vivo efficacy study of Compounds 1, 2, 4, and 6 were performed using a Mouse Xenograft Model (Melanoma MelJuso). Mice were injected s.c. with 3×10^6 cells in the dorsal area in a volume of 100 μl. 13 days after inoculation, the mice started receiving treatments with the administered compound at a dose of 50 mg/kg body weight daily for 14 days (n=10). Vehicle alone was used as control (n=10). The administered compounds and vehicle were adjusted in a volume of 40 μl for i.p. injection in the abdomens of the mice. Tumor size and tumor volumes were calculated as described above.

[2] = test system: mesothelioma MS-1; test: In vivo efficacy, Mouse Xenograft Model (mesothelioma MS-1); conditions: MS-1 xenograft, 50 mg/kg i.p. daily for 14 days, vs control group, FIG. 2
Method: as §1, with “Data was presented as mean values (±S.D.).” left out
Model (Mesothelioma MS-1). […] Tumor sizes was measured twice weekly until the completion of the experiments. […]

[3] = test system: NSCLC A549; test: In vivo efficacy, Mouse Xenograft Model (lung cancer A549); conditions: 50 mg/kg i.p. daily for 14 days then another 7 days, tumors weighed day 43, vs control group, FIG. 3
Method: as §1, with “Tumors were allowed to grow for 1-2 additional weeks after completion of the compound treatments.” left out, “Data was presented as mean values (±S.D.).” left out
In vivo efficacy study of Compounds 1 and 4 in Mouse Xenograft Model (NSCLC A549) was examined. […] 43 days after the initial tumor inoculation, tumors were dissected from the mice of each group and their weights were measured using a scale. […]

[4] = test system: Hedgehog signaling pathway; test: Quantitative real-time RT-PCR of Hh pathway genes in xenograft tumors; type: in vivo, mouse; conditions: Melanoma tumor (MelJuso) xenograft, pooled tumor from two mice, FIG. 4
Method: (§2) Total RNA was isolated using Qiagen RNeasy Mini Kit (Valencia, Calif.). Hybridization probes and primers (Table 1) were purchased from Applied Biosystems (ABI, Foster City, Calif.). cDNA synthesis and Taqman® PCR were performed according to the manufactures' protocols. The gene expression was assayed in triplicate in ABI 7300 Real-time PCR System. Samples were normalized to their housekeeping gene GAPDH and then calculated by using 2^−dCt method.
To examine whether Compounds 1, 2, 4, and 6 suppressed tumor growth through inhibition of the Hedgehog signaling pathway in vivo, expression of the key components and direct target genes of the Hh pathway (e.g. Gli1, Gli2, Gli3, HHIP and Cyclin D1) were analyzed by quantitative real-time RT-PCR using total RNA isolated from the xenograft tumors. GAPDH served as a control. This RT-PCR analysis was performed using a “pooled” tumor from two randomly selected mice of each group with reasonable size tumors. […] The results are shown in FIG. 4, where C is control and V is vehicle.

[5] = test system: Wnt signaling pathway; test: Quantitative real-time RT-PCR of Wnt pathway genes in xenograft tumors; type: in vivo, mouse; conditions: Melanoma tumor xenograft, compared to controls, FIG. 4
Method: as §2
To examine whether Compounds 1, 2, 4, and 6 suppressed tumor growth through inhibition of the Wnt signaling pathway in vivo, expression of the key components and direct target genes of the Wnt pathway (e.g. Wnt2, Axin2, EGFR, and Cyclin D1) were analyzed by quantitative real-time RT-PCR using total RNA isolated from the xenograft tumors. GAPDH served as a control. This RT-PCR analysis was performed using a “pooled” tumor from two randomly selected mice of each group with reasonable size tumors. […] The results are shown in FIG. 4, where C is control and V is vehicle.

[6] = Preliminary in vivo toxicity: leukocyte population and body weight after in vivo treatment; set-up: species or system mouse; conditions: mice; for Changes of leukocyte population: at completion of the in vivo studies, FIG. 5; for Loss of body weight: during the course of drug administration, FIG. 6
Method: as §1
(§3) After the in vivo studies were completed, different organs were resected from mice. These organs included liver, lung, heart, kidney, intestines, ovary, brain, spleen, skin, and muscle. The specimens were fixed in 4% buffered formaldehyde, embedded in paraffin, sectioned, and histologically analyzed by hematoxylin and eosin (HE) staining. The HE stained slides were examined by a mouse pathologist for toxicity evidence from all the organs as compared with vehicle controls. In addition, leukocytes (WBC: white blood cell, NE: neutrophil, LY: lymphocyte, MO: monocyte, EO: eosinophil, BA: basophil) from each animal from all treatment groups were collected and leukocyte population was counted through a blood cell counter.
(§4) As preliminary in vivo toxicity study of Compounds 1, 2, 4, and 6, it was examined if there were changes of leukocyte population and loss of body weight in the mice after the treatment. At the completion of the in vivo studies as described herein, leukocytes (WBC: white blood cell, NE: neutrophil, LY: lymphocyte, MO: monocyte, EO: eosinophil, BA: basophil) from each animal from all treatment groups were collected and leukocyte population was counted through a blood cell counter. Body weights of control groups (n=10) and the treated group (n=10) were measured using a scale during the course of drug administration. […] In an additional toxicity study, effect of different doses of compounds 4 and 6 on the body weight of mice was examined. The compounds were i.p. injected in the abdomens at 3 different doses: 25, 50, and 100 mg/kg body weight to mice (3 mice per dosing group) for 6 consecutive days.

[7] = Histological examination (H&E) of organs for toxicity; type: in vivo; conditions: mice, i.p. two doses daily for 6 days, FIGS. 8-11
Source text: as §3
To analyze toxicity of the Compounds 1, 2, 4, and 6 in vivo, each group (three mice) was i.p. injected with two doses of each Compound daily for 6 days, and then major mouse organs, such as liver, spleen, kidney, and heart were resected from the mice. The specimens will be fixed in 4% buffered formaldehyde, embedded in paraffin, sectioned and histologically analyzed by hematoxylin and eosin (H&E) staining.

[8] = Additional toxicity study: body weight at different doses; type: in vivo, mouse; conditions: mice, i.p. 25, 50 and 100 mg/kg for 6 consecutive days, FIG. 7
Method: Each dosing group contained 3 mice. The body weight of mice was measured using a scale. Results are the means±SD (error bars).
as §4

[9] = test system: human NSCLC cell lines; test: Combination treatment, MTS cell proliferation assay, NSCLC cell lines; type: cell-based; conditions: lung cancer cells, 72 hours, Combination Index
Source text: (§5) Another assay for determining the number of viable cells in proliferation or cytotoxicity assays is the MTS assay, a colorimetric method. MTS assay reagents are commercially available (Promega Corp., Madison, Wis.). The reagent contains a tetrazolium compound [3-(4,5-dimethylthiazol-2-yl)-5-(3-carboxymethoxyphenyl)-2-(4-sulfophenyl)-2H-tetrazolium, inner salt; MTS] and an electron coupling reagent (phenazine ethosulfate; PES). PES has enhanced chemical stability, which allows it to be combined with MTS to form a stable solution. The MTS tetrazolium compound (Owen's reagent) is bioreduced by cells into a colored formazan product that is soluble in tissue culture medium. This conversion may be accomplished by NADPH or NADH produced by dehydrogenase enzymes in metabolically active cells. The quantity of formazan product as measured by the absorbance at 490 nm is directly proportional to the number of living cells in culture. Because the MTS formazan product is soluble in tissue culture medium, this assay requires fewer steps than procedures that use tetrazolium compounds such as MTT. The formazan product of MTT reduction is a crystalline precipitate that requires an additional step in the procedure to dissolve the crystals before recording absorbance readings at 570 nm.
(§6) Combination treatments of the Compounds with several chemotherapies: erlotinib (Tarceva®), PI3K inhibitor LY294002, TGFβ inhibitor SB431542, and pemetrexed (Alimta®) were performed in human NSCLC and MM cell lines (FIGS. 12-17). In all experiments, NSCLC and MM cell lines were treated with different doses of each compound or combination for 72 hours, and MTS assays were performed to determine the cell proliferations. Combination Index (CI), calculated by CalcuSyn software (Biosoft, Cambridge, UK), was applied to describe the effect of the combination effects of two compounds, where CI<1 indicates Synergism, CI=1 indicates Additive effects, and CI>1 indicates Antagonism. Student's t-tests were applied for statistical analysis.

[10] = test system: human MM cell lines (mesothelioma cells); test: Combination treatment, MTS cell proliferation assay, MM (mesothelioma) cell lines; type: cell-based; conditions: 72 hours, Combination Index
Source text: as §5, §6

CC(C)(CO)CCCNC(=O)C1C(c2ccccc2)=NN(c2ccccc2)C1c1ccsc1 (stereo not drawn) [Compound 1, 1,3-diphenyl-5-thiophen-3-yl-4,5-dihydro-1H-pyrazole-4-carboxylic acid (5-hydroxy-4,4-dimethyl-pentyl)-amide]
Tumor weight after treatment [1]: significantly decreased | Tumor growth after treatment [1]: dramatically suppressed | Tumor weight after treatment [2]: significantly decreased | Tumor weight after treatment [3]: significantly decreased | Hh signaling (expression of Gli1, Gli2, Gli3, HHIP, Cyclin D1) in tumor [4]: inhibited | Expression of the key indicator of canonical Wnt activation in tumor [5]: significantly down-regulated | Changes of leukocyte population [6]: No noticeable changes | Loss of body weight [6]: No noticeable changes of leukocyte population or loss of the body weight | Toxicity in organs (liver, spleen, kidney, heart), H&E histology [7]: No noticeable toxicity

O=C(NCc1ccc(O)cc1)C1C(c2ccccc2)=NN(c2ccccc2)C1c1ccccc1 (stereo not drawn) [Compound 2, 1,3,5-triphenyl-4,5-dihydro-1H-pyrazole-4-carboxylic acid 4-hydroxy-benzylamide]
Tumor weight after treatment [1]: significantly decreased | Tumor growth after treatment [1]: dramatically suppressed | Hh signaling (expression of Gli1, Gli2, Gli3, HHIP, Cyclin D1) in tumor [4]: inhibited | Expression of the key indicator of canonical Wnt activation in tumor [5]: significantly down-regulated | Changes of leukocyte population [6]: No noticeable changes | Loss of body weight [6]: No noticeable changes of leukocyte population or loss of the body weight | Toxicity in organs (liver, spleen, kidney, heart), H&E histology [7]: No noticeable toxicity

CC(C)(CO)CCCNC(=O)C1C(c2ccc(F)cc2)=NN(c2ccccc2)C1c1cccc(F)c1 (stereo not drawn) [Compound 6, 3-(4-fluoro-phenyl)-5-(3-fluoro-phenyl)-1-phenyl-4,5-dihydro-1H-pyrazole-4-carboxylic acid (5-hydroxy-4,4-dimethyl-pentyl)-amide]
Tumor weight after treatment [1]: significantly decreased | Tumor growth after treatment [1]: dramatically suppressed | Hh signaling (expression of Gli1, Gli2, Gli3, HHIP, Cyclin D1) in tumor [4]: inhibited | Changes of leukocyte population [6]: No noticeable changes | Loss of body weight [6]: No noticeable changes of leukocyte population or loss of the body weight | Loss of body weight [8]: no noticeable loss | Toxicity in organs (liver, spleen, kidney, heart), H&E histology [7]: No noticeable toxicity | Combination effect with PI3K inhibitor LY294002 ([9]; FIG. 14): synergy | Combination effect with TGFβ inhibitor SB431542 ([9]; FIG. 16): synergy | Combination effect with PI3K inhibitor LY294002 ([10]; FIG. 15): synergy | Combination effect with pemetrexed (Alimta) ([10]; FIG. 17): synergy
